Assays:
platelet aggregation = assay: Antiplatelet aggregation activity, overall statements over the four inducers; type: cell-based, rabbit; conditions: discussion of Table 1, all inducers
Method: (§1) Collagen (type 1, bovine Achilles tendon), obtained from Sigma Chemical Co., was homogenized in […] HOAc and stored at −70° C. Arachidonic acid, bovine serum albumin (BSA), EDTA (disodium salt), sodium citrate, dimethyl sulfoxide (DMSO), and platelet activating factor (PAF) were purchased from Sigma Chemical Co. Thrombin (bovine) was obtained from Parke-Davis Co. and dissolved in 50% (viv) glycerol to give a stock solution of 100 NIH units/mL.
(§2) Blood was collected from the rabbit marginal ear vein and was mixed with EDTA to a final concentration of 6 mM. It was centrifuged at 90 g for 10 min at room temperature, and the supernatant was obtained as platelet-rich plasma. The latter was further centrifuged at 500 g for 10 min. The platelet pellets were washed with Tyrode's solution without EDTA. After centrifugation at the same conditions, the platelet pellets were finally suspended in Tyrode's solution of the following composition (mM): NaCl (136.8), KCl (2.81, NaHCO3 (11.9), MgCl2 (1.1), NaH2PO4 (0.33), CaCl2 (1.0), and glucose (11.2). Platelet numbers were counted by Coulter Counter (Model ZM) and adjusted to 4.5×10^8 […].
(§3) Aggregation was measured by the turbidmetric method with a dual-channel Lumiaggregometer (Model 1020, Payton, Canada). All glassware was siliconized. One minute before the addition of the aggregation inducer, the platelet suspension was stirred at 900 rpm. The percentage of aggregation was calculated as described previously.

[1] = system: AA-induced platelet aggregation; assay: Platelet aggregation induced by AA (turbidimetric, washed platelet suspension); type: cell-based, rabbit; conditions: for IC50: rabbit platelets incubated with test compound at 37° C. for 1 min, then AA (100 μM); for inhibition of AA-induced platelet aggregation (in words): discussion of Table 1
Method: as §1, §2, §3

[2] = system: PAF-induced platelet aggregation; assay: Platelet aggregation induced by PAF (turbidimetric, washed platelet suspension); type: cell-based, rabbit; conditions: for IC50: rabbit platelets incubated with test compound at 37° C. for 1 min, then PAF (2 ng/mL); for inhibition of PAF-induced platelet aggregation (in words): discussion of Table 1
Method: as §1, §2, §3

[3] = system: collagen-induced platelet aggregation; assay: Platelet aggregation induced by collagen (turbidimetric, washed platelet suspension); type: cell-based, rabbit; conditions: for IC50: rabbit platelets incubated with test compound at 37° C. for 1 min, then collagen (10 μg/mL); for inhibition of collagen-induced platelet aggregation (in words): discussion of Table 1
Method: as §1, §2, §3

[4] = system: thrombin-induced platelet aggregation; assay: Platelet aggregation induced by thrombin (turbidimetric, washed platelet suspension); type: cell-based, rabbit; conditions: for IC50: rabbit platelets incubated with test compound at 37° C. for 1 min, then thrombin (0.1 unit/mL); for inhibition of thrombin-induced platelet aggregation (in words): discussion of Table 1
Method: as §1, §2, §3

[5] = Oryctolagus cuniculus, Platelet, 1 min

Row | SMILES | anti-platelet activity overall (in words) (platelet aggregation) | IC50 [1] [µM] | IC50 [2] [µM] | IC50 [3] [µM] | IC50 [4] [µM] | IC50 [1, 5] [µM] | IC50 [2, 5] [µM] | inhibition of PAF-induced platelet aggregation (in words) [2] | IC50 [3, 5] [µM] | inhibition of collagen-induced platelet aggregation (in words) [3] | IC50 [4, 5] [µM] | melting point [°C] | inhibition of AA-induced platelet aggregation (in words) [1] | inhibition of thrombin-induced platelet aggregation (in words) [4]
1 | OCc1ccc(-c2cn(Cc3ccccc3)c3ccccc23)o1 [Compound 7, N-Benzyl-3-(5′-hydroxymethyl-2′-furyl)indole] | nearly no anti-platelet activity | > 300 | > 300 | > 300 | > 300 | – | – | – | – | – | – | – | – | –
2 | OCc1ccc(-c2cn(Cc3ccccc3)c3ccccc23)s1 [Compound 8, N-Benzyl-3-(5′-hydroxymethyl-2′-thienyl)indole] | did not improve its activity | > 300 | > 300 | > 300 | > 300 | – | – | – | – | – | – | – | – | –
3 | OCc1ccc(-c2cn(Cc3ccccc3)c3ccccc23)cc1 [Compound 10, N-Benzyl-3-(4-hydroxymethylphenyl)indole] | – | – | – | – | – | > 300 | 170 | inhibited | 168 | inhibited | > 300 | 122 | – | –
4 | O=S(=O)(c1ccccc1)n1cc(-c2ccc(CO)o2)c2ccccc21 [Compound 16, N-Benzenesulfonyl-3-(5′-hydroxymethyl-2′-furyl)indole] | – | 94.9 | 164 | 73.7 | 173 | – | – | significant inhibition | – | significant inhibition | – | – | significant inhibition | significant inhibition
5 | O=S(=O)(c1ccccc1)n1cc(-c2ccc(CO)s2)c2ccccc21 [Compound 17, N-Benzenesulfonyl-3-(5′-hydroxymethyl-2′-thienyl)indole] | – | 154 | 171 | 131 | > 300 | – | – | excellent inhibitory activity | – | excellent inhibitory activity | – | – | excellent inhibitory activity | impaired its inhibitory activity
6 | O=C(c1ccccc1)n1cc(-c2ccc(CO)o2)c2ccccc21 [Compound 32, N-Benzoyl-3-(5′-hydroxymethyl-2′-furyl)indole] | – | 38.2 | > 300 | 51.1 | > 300 | – | – | inefficient | – | excellent inhibitory activity | – | – | excellent inhibitory activity | inefficient
7 | COc1cccc(C(=O)n2cc(-c3ccc(CO)o3)c3ccccc32)c1 [Compound 33, N-(3′-Methoxybenzoyl)-3-(5′-hydroxymethyl-2′-furyl)indole] | comparable with YC-1 | 90.9 | 169 | 83.9 | 175 | – | – | significant inhibition | – | significant inhibition | – | – | significant inhibition | significant inhibition
8 | COc1ccc(C(=O)n2cc(-c3ccc(CO)o3)c3ccccc32)cc1 [Compound 34, N-(4′-Methoxybenzoyl)-3-(5′-hydroxymethyl-2′-furyl)indole] | – | 2.9 | 270 | 30.9 | > 300 | – | – | poor inhibition | – | potent inhibition | – | – | potent inhibition | poor inhibition
9 | OCc1ccc(-c2nn(Cc3ccccc3)c3ccccc23)o1 [YC-1, 1-benzyl-3-(5′-hydroxymethyl-2′-furyl)indazole] | – | – | – | – | – | 57 | 90 | – | 54.6 | – | 180 | – | – | –
10 | OCc1ccc(-c2nn(Cc3ccccc3)c3ccccc23)cc1 [YD-1, 1-benzyl-3-(4-hydroxymethylphenyl)indazole, reference compound] | – | – | – | – | – | 101 | 143 | – | 123 | – | 193 | – | – | –

— patent US7176230B2, “Synthesis of indole analogs of 1-benzyl-3-(5′-hydroxymethyl-2′-furyl) indazole (YC-1) as anti-platelet agents” (Industrial Technology Research Institute, priority 2004, dated 2007)
